Consider 4 molecules from patent US20250163119A1, “COMPOUNDS FOR THE TREATMENT OF DIABETES OR OBESITY” (Eli Lilly and Company, priority 2023, published 2025).

Data set [1] in a line: Pharmacokinetics in Sprague Dawley rats, single subcutaneous or intravenous dose (incl. 10, 30, 100 nmol/kg dose response). In kind it is in vivo.
In data set [2] the target is T1, human CRHR1 (Homo sapiens, UniProt P34998).
T1 construct: expressed in transfected cells
T1 sequence (P34998 24-415): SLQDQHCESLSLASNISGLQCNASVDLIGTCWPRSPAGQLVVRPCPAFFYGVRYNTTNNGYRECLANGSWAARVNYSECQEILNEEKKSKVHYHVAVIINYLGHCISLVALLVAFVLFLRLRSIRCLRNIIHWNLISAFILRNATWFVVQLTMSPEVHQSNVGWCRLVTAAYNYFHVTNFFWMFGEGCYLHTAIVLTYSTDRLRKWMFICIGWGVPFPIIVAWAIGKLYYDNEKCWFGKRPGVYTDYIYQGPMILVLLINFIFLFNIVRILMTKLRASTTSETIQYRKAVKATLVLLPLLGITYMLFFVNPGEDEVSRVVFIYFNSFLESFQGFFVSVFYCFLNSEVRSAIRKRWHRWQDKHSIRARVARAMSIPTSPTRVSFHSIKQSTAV
Briefly: Human CRHR1 cAMP assay (HTRF) in HEK293 cells stably expressing human CRHR1. The format is cell-based. Conditions: HEK293 cells overexpressing human CRHR1; relative EC50, maximum 66 nM human UCN1; mean ± SE; read-out: hCRHR1 cAMP EC50 (pM, ± SE). The procedure, abridged:
(§1)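 Stably expressing HEK293 clones received peptide concentration series in phosphodiesterase-inhibited buffer (0.25 mM IBMX, pH 7.4). After receptor-specific incubation (CRHR1 1 h at 37° C; CRHR2 30 min at room temperature), cells were lysed with HTRF cAMP reagents for 60 min and the 665/620 nm ratio recorded.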
(In general: cAMP levels reflect the balance of adenylyl cyclase and phosphodiesterase activity.)

For data set [3], the target named is T2, human CRHR2 (Homo sapiens, UniProt Q13324).
T2 construct: expressed in transfected cells
T2 sequence (Q13324 1-438 isoform Q13324-2): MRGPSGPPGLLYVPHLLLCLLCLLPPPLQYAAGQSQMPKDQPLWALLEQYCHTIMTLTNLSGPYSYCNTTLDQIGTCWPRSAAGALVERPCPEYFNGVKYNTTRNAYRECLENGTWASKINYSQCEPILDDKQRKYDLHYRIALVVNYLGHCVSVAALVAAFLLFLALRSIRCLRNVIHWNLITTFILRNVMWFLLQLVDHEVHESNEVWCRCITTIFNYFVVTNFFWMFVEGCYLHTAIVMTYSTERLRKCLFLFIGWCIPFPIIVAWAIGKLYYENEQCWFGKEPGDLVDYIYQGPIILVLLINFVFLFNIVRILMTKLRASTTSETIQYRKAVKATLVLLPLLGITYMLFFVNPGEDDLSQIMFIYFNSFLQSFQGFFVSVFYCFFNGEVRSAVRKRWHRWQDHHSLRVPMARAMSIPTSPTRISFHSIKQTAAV
Briefly: Human CRHR2 cAMP assay (HTRF) in HEK293 cells stably expressing human CRHR2. The format is cell-based. To be noted: HEK293 cells overexpressing human CRHR2; relative EC50, maximum 10 nM human UCN2; mean ± SE; read-out: hCRHR2 cAMP EC50 (pM, ± SE). The procedure, abridged:
as §1

Data set [4] concerns MHC-II presented peptides on human dendritic cells. Nature of the data set: MAPPS assay (MHC-Associated Peptide Proteomics). In kind it is cell-based. The method, then:
MAPPS profiles the MHC-II presented peptides on human dendritic cells treated with tested molecules. CD14+ cells, isolated from the PBMCs of normal human donors, were cultured and differentiated into immature DCs by incubation with IL-4 and GM-CSF. On day 4, culture media was replaced with fresh media containing tested molecules. On day 5, LPS was added to transform the cells into mature DCs. On day 6, cells were lysed in RIPA buffer with protease inhibitors. Immunoprecipitation of MHC-II complexes were performed using biotinylated anti-MHC-II antibody coupled to streptavidin beads. The bound complex was eluted and filtered. The isolated MHC-II peptides were analyzed by a mass spectrometer. Peptide identifications were generated by an internal proteomics pipeline using search algorithms with no enzyme and a bovine/human database with test sequences appended to the database. A KNIME workflow was used to process the identification files from the samples. Peptides identified from the test articles were aligned against the parent sequence of the test molecule. The output was used to determine the percentage of donors displaying MHC-II peptides from regions of the test molecule. Polypeptides comprising SEQ ID NOs:54, 49, 50, 29, 41, 45, 1, 22, 25 were tested in the MAPPs assay. […] Depending on the donors, up to three major clusters were observed, each slightly shifted from the others, altogether spanning residues 1-33.

In data set [5] the target is T3, human corticotropin-releasing hormone receptor 1 (CRHR1) (human, UniProt P34998 24-415).
T3 sequence (looked up): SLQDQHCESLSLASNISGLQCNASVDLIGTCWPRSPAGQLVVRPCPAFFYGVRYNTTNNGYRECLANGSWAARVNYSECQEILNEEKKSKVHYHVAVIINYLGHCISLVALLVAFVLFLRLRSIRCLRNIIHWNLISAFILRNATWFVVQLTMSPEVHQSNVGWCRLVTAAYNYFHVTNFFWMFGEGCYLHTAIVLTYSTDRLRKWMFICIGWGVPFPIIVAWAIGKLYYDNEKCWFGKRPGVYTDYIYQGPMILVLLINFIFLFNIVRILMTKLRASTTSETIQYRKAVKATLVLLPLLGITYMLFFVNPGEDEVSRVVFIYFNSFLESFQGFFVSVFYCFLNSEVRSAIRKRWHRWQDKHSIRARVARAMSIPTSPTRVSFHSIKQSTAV
Nature of the data set: cell-based or functional assay.

Data set [6] concerns the target rat CRHR2 (endogenous on A7r5 cells) (rat, UniProt P47866 20-411). Nature of the data set: cell-based or functional assay.
For data set [7], the target named is T3, human corticotropin-releasing hormone …. Nature of the data set: cell-based or functional assay. This is another data set of the same source.
[8] abbreviates: male, Sprague Dawley, rat, plasma, iv, 196 nmol/kg, single intravenous dose 196 nmol/kg, individual animal.
[9] abbreviates: male, Sprague Dawley, rat, plasma, iv, 196 nmol/kg, single intravenous dose 196 nmol/kg, mean.
Setting [10] is: single intravenous dose 196 nmol/kg, male Sprague Dawley rats, individual animal.
[11] abbreviates: single subcutaneous dose 196 nmol/kg, male Sprague Dawley rats, individual animal.

The half-life is the time in which the quantity being followed falls by half. High values mean slow decline, low ones rapid decline. What is called Tmax is the time from dosing to the highest level. A word on the Cmax: it is the peak of the concentration-time curve. In general, EC50 refers to the midpoint of the concentration-response curve.

Values joined by “and” are separate entries in the source; they are usually repeats but may differ in a detail not shown here. Equal entries are not always repeated. Where two headings read alike, the source gives them in different places. *1 amine or outer side, *2 acyl side, *3 side chain or, on linkers, in order; H or OH if unused. Where a SMILES comes first, the peptide text is derived from it. Side-chain parts run from the residue outwards. [ ]: non-standard residue; d: D form. The star is where a group is joined. C20 diacid = O=C(O)CCCCCCCCCCCCCCCCCCC(=O)*; γGlu = O=C(O)[C@H](CCC(=O)[*:2])N[*:1]; εLys = N[C@@H](CCCCN[*:1])C(=O)[*:2]; αMeL = CC(C)C[C@](C)(N)C(=O)O; AEEA = NCCOCCOCC(=O)O; Aib = CC(C)(N)C(=O)O

Chain of rat CRHR2 (endogenous on A7r5 cells) (P47866 20-411): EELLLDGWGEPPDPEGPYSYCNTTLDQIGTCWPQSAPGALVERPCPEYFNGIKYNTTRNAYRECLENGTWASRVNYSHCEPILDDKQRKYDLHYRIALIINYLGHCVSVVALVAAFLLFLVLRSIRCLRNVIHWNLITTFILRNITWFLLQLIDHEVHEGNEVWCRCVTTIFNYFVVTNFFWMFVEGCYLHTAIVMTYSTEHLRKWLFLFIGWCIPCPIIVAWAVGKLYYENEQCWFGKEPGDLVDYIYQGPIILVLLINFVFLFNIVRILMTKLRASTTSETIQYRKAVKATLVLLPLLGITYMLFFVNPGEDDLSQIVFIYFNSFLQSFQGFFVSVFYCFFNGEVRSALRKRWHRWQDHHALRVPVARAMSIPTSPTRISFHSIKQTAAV

On to `CC[C@H](C)[C@H](NC(C)=O)C(=O)N[C@H](C(=O)N[C@H](C(=O)N[C@@H](CO)C(=O)N[C@@](C)(CC(C)C)C(=O)N[C@@H](CC(=O)O)C(=O)N[C@@H](C(=O)N1CCC[C@H]1C(=O)N[C@H](C(=O)NC(C)(C)C(=O)N[C@@](C)(CC(C)C)C(=O)N[C@@H](CC(C)C)C(=O)N[C@@H](CCC(N)=O)C(=O)N[C@H](C(=O)N[C@@H](CCCCN)C(=O)N[C@@H](CC(C)C)C(=O)N[C@@H](CCC(=O)O)C(=O)N[C@@H](CCC(N)=O)C(=O)N[C@@H](CCC(=O)O)C(=O)N[C@@H](CCCNC(=N)N)C(=O)N[C@@H](C)C(=O)N[C@@H](CCC(=O)O)C(=O)N[C@@H](CCCCN)C(=O)N[C@@H](C)C(=O)N[C@@H](CCCNC(=N)N)C(=O)N[C@@H](CCC(N)=O)C(=O)N[C@@H](CCC(N)=O)C(=O)N[C@@H](C)C(=O)N[C@@H](CCCCNC(=O)COCCOCCNC(=O)COCCOCCNC(=O)CC[C@H](NC(=O)CCCCCCCCCCCCCCCCCCC(=O)O)C(=O)O)C(=O)N[C@@H](CCC(=O)O)C(=O)N[C@@H](CC(N)=O)C(=O)N[C@H](C(=O)N[C@@H](CCC(=O)O)C(=O)N[C@H](C(=O)N[C@@H](CC(C)C)C(=O)N[C@@H](C)C(=O)N[C@@H](CCC(N)=O)C(=O)N[C@H](C(N)=O)C(C)C)[C@@H](C)CC)[C@@H](C)O)[C@@H](C)CC)[C@@H](C)CC)C(C)C)[C@@H](C)O)C(C)C` [SEQ ID NO: 42, Ac-IVTS αMeL D (D-Val) PI Aib αMeL LQIKLEQERAEKARQQAK((2-[2-(2-Amino-ethoxy)-ethoxy]-acetyl)2-γE-CO-(CH2)18-CO2H)ENTEILAQV-NH2] (Ac-IVTS[αMeL]D[dV]PI[Aib][αMeL]LQIKLEQERAEKARQQAK([AEEA-AEEA-γGlu-C20 diacid])ENTEILAQV-NH2), for which the clearance in data set [1] (setting [8]) is 2.4 mL/h/kg; in data set [1] (setting [9]), 2.43 mL/h/kg. The half-life is 36.1 h in data set [1] (setting [8]); 39.3 h in data set [1] (setting [9]); 33.2 h in data set [1] (male, Sprague Dawley, rat, plasma, sc, 196 nmol/kg, single subcutaneous dose 196 nmol/kg, individual animal); 42.2 h in data set [1] (male, Sprague Dawley, rat, plasma, sc, 196 nmol/kg, single subcutaneous dose 196 nmol/kg, mean). The CL/F in data set [1] (male, Sprague Dawley, rat, plasma, sc, 196 nmol/kg, single subcutaneous dose 196 nmol/kg, individual animal, read-out: CL/F (converted)) is 5.41 mL/h/kg; in data set [1] (male, Sprague Dawley, rat, plasma, sc, 196 nmol/kg, single subcutaneous dose 196 nmol/kg, mean, read-out: CL/F (converted)), 4.85 mL/h/kg; in data set [1] (setting [11]), 4.80 mL/h/kg and 4.35 mL/h/kg. For the same molecule, the Tmax in data set [1] (male, Sprague Dawley, rat, plasma, sc, 196 nmol/kg, single subcutaneous dose 196 nmol/kg, individual animal, read-out: Tmax) turned out to be 48 h; in data set [1] (male, Sprague Dawley, rat, plasma, sc, 196 nmol/kg, single subcutaneous dose 196 nmol/kg, mean, read-out: Tmax) it was 40 h; in data set [1] (setting [11]) it was 24 h. The AUC0-inf is 44.3 µM·h in data set [1] (rat, plasma, sc, single subcutaneous dose 196 nmol/kg, male Sprague Dawley rats, mean, read-out: AUC0-inf); 80.6 µM·h in data set [1] (rat, plasma, single intravenous dose 196 nmol/kg, male Sprague Dawley rats, mean, read-out: AUC0-inf); 81.5 µM·h and 77.9 µM·h and 82.5 µM·h in data set [1] (setting [10]); 38.1 µM·h and 43.2 µM·h and 51.5 µM·h in data set [1] (setting [11]). For the same molecule, the highest concentration (Cmax) in data set [1] (rat, plasma, sc, single subcutaneous dose 196 nmol/kg, male Sprague Dawley rats, mean, read-out: Cmax) was 473 nM; in data set [1] (setting [11]) it was 399 nM and 559 nM and 460 nM. The C0 is 2420 nM in data set [1] (rat, plasma, single intravenous dose 196 nmol/kg, male Sprague Dawley rats, mean, read-out: C0); 2760 nM and 2250 nM and 2260 nM in data set [1] (setting [10]). In data set [1] (setting [10]), the CL was 2.51 mL/h/kg and 2.37 mL/h/kg. Moreover, the T1/2 was 35.8 h and 46.0 h in data set [1] (setting [10]); 39.1 h and 54.2 h in data set [1] (setting [11]). The figures for the half-maximal effective concentration (EC50) in data set [2] and in data set [3] were 2.3e+06 pM and 6.6 ± 0.8 pM, respectively.
As to “{C20 diacid}-K[AEEA][γGlu]GSPSIVTS[αMeL]DVPT[Aib][αMeL]LQKILEQERAEKARQQATEAAEILAQV-NH2 [SEQ ID NO: 26]”, the EC50 in data set [2] was over 1e+07 pM; in data set [3], 6.9 ± 0.7 pM.
With “γGlu-GPSIVTS[αMeL]D[dV]PI[Aib][αMeL]LQIKLEQERAEKARQQAK([AEEA-AEEA-γGlu-C20 diacid])ENTEILAQV-NH2 [SEQ ID NO: 45, γE-GPSIVTS αMeL D (D-Val) PI Aib αMeL LQIKLEQERAEKARQQAK((2-[2-(2-Amino-ethoxy)-ethoxy]-acetyl)2-γE-CO-(CH2)18-CO2H)ENTEILAQV-NH2]”, the EC50 in data set [2] was 3.7e+06 pM; in data set [3], 9 ± 3.6 pM. The “MAPPS Assay >10 donors with diverse MHC” value is listed as 0/20 in data set [4] (donors displaying MHC-II peptides / donors tested) and 0% in data set [4] (percentage of donors displaying MHC-II peptides). In addition, the “peptides displayed on MHC-II complexes” value in data set [4] (human dendritic cells from normal donors) is given as “no peptides displayed on MHC-II complexes”. Also, in data set [4] (in the MAPPs assay and/or the T cell proliferation assay), the “immunogenicity compared with SEQ ID NO:54” value is recorded as “substantial improvements in immunogenicity over a compound comprising SEQ ID NO:54”.

B1: polypeptide comprising SEQ ID NO:2 (peptide)
peptide: Ac-GSPSIVTS[αMeL]DVPT[Aib][αMeL]LQKLLEQERAEKARQQAK([γGlu-AEEA-εLys-C20 diacid])EAAEILAQV-NH2
For B1, the “Y79 cAMP EC50” value in data set [5] stood at 2.1 µM. Besides, the “A7r5 cAMP EC50” value in data set [6] worked out at 0.000544 µM. Besides, in data set [7], the “hCRHR1 cAMP EC50” value was over 10 µM.
